Results on four molecules are retold here after patent publication US20070082930A1, “Pharmaceutical composition comprising a p2x7 receptor antagonist and a nonsteroidal anti-inflammatory drug” (ASTRAZENECA AB, priority 2003, published 2007).

Structures are written as SMILES.

In this test the test system is streptococcal cell wall-induced arthritis. The test is described as follows: Rat streptococcal cell wall (SCW)-induced arthritis: ankle swelling and von Frey mechanical threshold. In kind it is in vivo. The following applies: oral bid, P2X7 antagonist 1 30 mg/kg. The text has this:
Assessment of Anti-Inflammatory Activity of the COX-2 Inhibitor, Celecoxib/P2X7 Antagonist Combinations in Rat Streptococcal Cell Wall-Induced Arthritis.^1 1. Experimental procedure based on that described by Carlson R P, Jacobsen P B, ‘Comparison of adjuvant and streptococcal cell wall-induced arthritis in the rat’in Morgan D W, Marshall L A, editors; In Vivo Models of Inflammation. Basel: Birkhauser Verlag; 1999.
Streptococcal cell wall (SCW)-induced arthritis was induced in the left ankle of female Lewis rats. Animals were sensitised by intra-articular injection of 5 μg (in 20 μL) SCW (Lee Laboratories) into the left ankle. Ankle swelling was assessed 3 days after injection and non-responders (animals with no apparent ankle swelling) were rejected. Responding animals were randomly allocated to the test groups.
Arthritis was induced 21 days after sensitisation by intravenous (iv) injection of SCW (100 μg in 500 μL saline). Animals were monitored and assessed on a daily basis through to term-ination 6 days after induction. The rats were housed on sawdust and provided with food and water ad libitum.
In this example the P2X7 antagonist 1 was orally dosed at 30 mg/kg (4 mL/kg, bid). The compound was dosed as a suspension in 1% (w/v) methylcellulose in deionised water and was freshly prepared on a daily basis. Dosing commenced 1 day prior to induction of arthriis and continued on a daily basis through to termination on day 6 post-induction. Celecoxib (3 mg/kg) was dosed orally under the same regime as for P2X7 antagonist 1, administration of celecoxib occurring immediately after administration of P2X7 antagonist 1.
Ankle diameters were measured with vernier callipers on a daily basis from day −1. Mechanical thresholds were assessed using von Frey filaments on days −1, 1, 3 and 5. The filaments were applied in increasing weights to the ankle region on the footpad of both feet. The first filament to induce a withdrawal response was considered to be the threshold.
Effects on ankle swelling and mechanical threshold were calculated on an area under the curve (AUC) basis, as the sum of the differences from individual day −1 values. The size. and direction of the interaction was calculated and data analysis performed by ANOVA followed by Dunnett's test on the AUC data (SAS version 8.01).
The anti-inflammatory activity of the COX-2 inhibitor, rofecoxib in combination with a P2X7 antagonist was assesesd using the protocol described in Example 3A. The P2X7 antagonist 1 was dosed orally at 30 mg/kg (4 mL/kg, bid) as a suspension in 1% (w/v) methylcellulose in deionised water, together with rofecoxib (Merck Sharp & Dohme Limited) (1 mg/kg) in a single formulation. Dosing commenced 1 day prior to induction of arthritis and continued on a daily baisis through to termination on day 6 post-induction.
The anti-inflammatory activity of the COX-2 inhibitor, valdecoxib in combination with a P2X7 antagonist was assesesd using the protocol described in Example 3A. The P2X7 antagonist 1 was orally dosed at 30 mg/kg (4 mL/kg, bid) as a suspension in 1% (w/v) methylcellulose in deionised water, together with valdecoxib (Pfizer) (1 mg/kg) in a single formulation. Dosing commenced 1 day prior to induction of arthritis and continued on a daily baisis through to termination on day 6 post-induction.

Setting [1] is: Example 3A, female Lewis rats, day -1 to day 6 post-induction, celecoxib 3 mg/kg, given one immediately after the other.
[2] abbreviates: Example 3B, day -1 to day 6, rofecoxib 1 mg/kg, single formulation.
Setting [3] is: Example 3C, day -1 to day 6, valdecoxib 1 mg/kg, single formulation.

In the case of `Cc1ccc(-c2cc(C(F)(F)F)nn2-c2ccc(S(N)(=O)=O)cc2)cc1` [Celecoxib, 4-[5-(4-methylphenyl)-3-(trifluoromethyl)-1H-pyrazol-1-yl]benzenesulfonamide], under setting [1], the “% reduction of AUC (compared to arthritic vehicle control) Ankle swelling” value was found to be 63.0 ± 3.9 % and the “% reduction of AUC (compared to arthritic vehicle control) Von Frey threshold” value came out at 43.2 ± 15.9 %.

`Cc1ccc(C(=O)N2CC3CNCC(C2)O3)cc1NC(=O)CC12CC3CC(CC(C3)C1)C2.Cl` [P2X7 antagonist 1, N-[2-Methyl-5-(9-oxa-3,7-diazabicyclo[3.3.1]non-3-ylcarbonyl)phenyl]-tricyclo[3.3.1.1^3,7]decane-1-acetamide, hydrochloride]: the “% reduction of AUC (compared to arthritic vehicle control) Ankle swelling” value is, setting by setting: under setting [1], 28.5 ± 13.5%; under setting [2], 2.6 ± 11.6%; under setting [3], 2.6 ± 11.6%. Further, the “% reduction of AUC (compared to arthritic vehicle control) Von Frey threshold” value under setting [1] is 21.1 ± 10.9%, the “% reduction of AUC (compared to arthritic vehicle control) Von Frey threshold” value under setting [2] was determined as 26.5 ± 11.4% and the “% reduction of AUC (compared to arthritic vehicle control) Von Frey threshold” value under setting [3] was found to be 26.5 ± 11.4%.

For `CS(=O)(=O)c1ccc(C2=C(c3ccccc3)C(=O)OC2)cc1` [Rofecoxib, 4-[4′-(methylsulfonyl)phenyl]-3-phenyl-(5H)-furanone], under setting [2], the “% reduction of AUC (compared to arthritic vehicle control) Ankle swelling” value was determined as 50.6 ± 4.7 % and the “% reduction of AUC (compared to arthritic vehicle control) Von Frey threshold” value is recorded as 29.8 ± 7.8 %.

Consider `Cc1onc(-c2ccccc2)c1-c1ccc(S(N)(=O)=O)cc1` [Valdecoxib, 4-(5-methyl-3-phenyl-4-isoxazolyl)benzenesulfonamide], for which, under setting [3], the “% reduction of AUC (compared to arthritic vehicle control) Ankle swelling” value was found to be 52.8 ± 3.1 % and the “% reduction of AUC (compared to arthritic vehicle control) Von Frey threshold” value stood at 37.8 ± 8.6 %.
